Data taken from patent publication US11230541B2, “Heterocyclic compound” (Takeda Pharmaceutical Company Limited, priority 2017, dated 2022).

Target: T1, NMDA receptor composed of four subunits including 2 sets of heterodimers of NR1 and NR2B (Homo sapiens, UniProt Q13224)
T1 construct: host or cells: HEK293 (tetracycline-induced expression)
Experiment: NR2B Ca2+ influx assay (FLIPR, Fluo-4) in HEK293 cells expressing human GRIN1 and GRIN2B
Type: cell-based
Details: HEK293, 10 μM final compound concentration, glutamic acid/glycine-induced Ca2+ influx, read-out: inhibitory rate (10 μM compound concentration)
Description: To confirm the “antagonistic action on an NMDA receptor containing the NR2B subunit” of the compound of the present invention, human embryonic kidney cell expressing the “NMDA receptor composed of four subunits including 2 sets of heterodimers of NR1 and NR2B”, specifically HEK293 cell expressing human glutamate ionotropic receptor NMDA type subunit 1 (GRIN1) and human glutamate ionotropic receptor NMDA type subunit 2B (GRIN2B), was used and the activation suppressive effect on the receptors was measured.
As an index of the NMDA receptor activation, intracellular calcium ion (Ca^2+) influx caused by the binding of glycine and glutamic acid with NR1 and NR2B, respectively, was used. HEK293 cells were purchased from ChanTest. The cells were cultured in a DMEM/F-12 (COSMO BIO, 10-092-CM) medium added with 10% FBS′(fetal bovine serum, AusGene), 100 units/mL penicillin, 100 μg/mL streptomycin, 500 μg/mL neomycin, 100 μg/mL Zeocin, 5 μg/mL Blasticidin at 37° C., 5% CO2. The cells were detached from flask with trypsin the day before the assay, suspended in a seeding medium (DMEM (Invitrogen, 31053) added with 10% FBS, 100 units/mL penicillin, 100 μg/mL streptomycin) at 8×10^5 cells/mL, seeded by 25 μL per well in a 384-well plate (Falcon, 356663) at 20000 cells/well, and cultured overnight in an incubator. On the day of the assay, tetracycline (Wako Pure Chemical Industries, Ltd., 209-16561) was diluted with the seeding medium at 2 μg/mL, added at […] to the plate seeded with the cells, and cultured for 2 hr in an incubator. Thereafter, the medium was removed, and the cells were washed with 50 μL/well assay buffer (137 mM NaCl, 4 mM KCl, 1.8 mM CaCl2, 10 mM HEPES (pH 7.2), 10 mM Glucose, 0.1% BSA). Then, a loading buffer (assay buffer added with 2.5 uM Fluo-4AM, 2 mM Amaranth, 1 mM Tartrazine) was added at 25 μL/well, and loading was performed in the incubator for 30 min, and at room temperature for 15 min. A solution (25 μL) of the Example compound diluted with the above-mentioned assay buffer at 30 μM (final concentration 10 μM) was added, and the cells were stood for 15 min at room temperature. Using FLIPR (Molecular Devices), 25 μL of an assay buffer containing 30 μM glutamic acid, 30 μM glycine was added, and the fluorescence signal was measured every 3 seconds for 5 min. The inhibitory activity was calculated as a relative activity value (inhibitory rate) that inhibits 100% of the cumulative value of the fluorescence value of a well added with a buffer free of glutamic acid, glycine, relative to the cumulative value of the fluorescence value of each well.

T1 sequence (Q13224 27-1484, other chains not shown): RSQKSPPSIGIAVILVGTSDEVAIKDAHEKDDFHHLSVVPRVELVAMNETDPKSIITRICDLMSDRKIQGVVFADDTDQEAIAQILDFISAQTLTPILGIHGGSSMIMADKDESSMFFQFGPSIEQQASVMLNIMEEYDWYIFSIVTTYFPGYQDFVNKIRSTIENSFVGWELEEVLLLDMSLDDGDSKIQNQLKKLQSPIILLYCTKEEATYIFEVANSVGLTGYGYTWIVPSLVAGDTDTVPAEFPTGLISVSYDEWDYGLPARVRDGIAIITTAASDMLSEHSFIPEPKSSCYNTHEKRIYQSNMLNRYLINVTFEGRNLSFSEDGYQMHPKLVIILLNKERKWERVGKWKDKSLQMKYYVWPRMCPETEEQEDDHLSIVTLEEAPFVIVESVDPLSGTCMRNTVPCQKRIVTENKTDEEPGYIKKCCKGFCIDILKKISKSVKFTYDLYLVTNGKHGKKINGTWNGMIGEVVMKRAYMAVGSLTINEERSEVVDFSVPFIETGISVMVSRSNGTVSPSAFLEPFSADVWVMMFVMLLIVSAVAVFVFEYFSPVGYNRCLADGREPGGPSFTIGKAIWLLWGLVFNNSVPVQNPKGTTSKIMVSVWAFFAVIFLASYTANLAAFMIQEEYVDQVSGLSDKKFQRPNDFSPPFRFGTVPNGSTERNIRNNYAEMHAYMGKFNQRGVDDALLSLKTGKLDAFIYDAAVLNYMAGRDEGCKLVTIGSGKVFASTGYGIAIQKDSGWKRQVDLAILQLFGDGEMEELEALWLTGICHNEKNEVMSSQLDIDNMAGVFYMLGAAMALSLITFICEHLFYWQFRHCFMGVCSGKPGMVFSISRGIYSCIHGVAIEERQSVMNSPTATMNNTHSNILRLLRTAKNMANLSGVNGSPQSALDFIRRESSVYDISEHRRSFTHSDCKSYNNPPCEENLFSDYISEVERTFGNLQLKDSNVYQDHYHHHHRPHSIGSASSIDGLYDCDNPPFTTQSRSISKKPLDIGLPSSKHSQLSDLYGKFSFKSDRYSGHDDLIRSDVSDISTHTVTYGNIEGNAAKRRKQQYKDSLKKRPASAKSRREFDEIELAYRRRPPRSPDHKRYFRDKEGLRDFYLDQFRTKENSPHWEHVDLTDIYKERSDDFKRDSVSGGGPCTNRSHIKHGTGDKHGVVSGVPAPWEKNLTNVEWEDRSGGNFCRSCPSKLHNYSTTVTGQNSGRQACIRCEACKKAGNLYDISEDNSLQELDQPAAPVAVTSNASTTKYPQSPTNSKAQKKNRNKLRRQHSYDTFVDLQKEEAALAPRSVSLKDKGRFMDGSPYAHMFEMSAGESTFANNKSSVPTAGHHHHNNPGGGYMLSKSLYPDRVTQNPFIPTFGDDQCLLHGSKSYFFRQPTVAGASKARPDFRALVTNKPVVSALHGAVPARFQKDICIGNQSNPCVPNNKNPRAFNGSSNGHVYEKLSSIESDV

Row | SMILES | inhibition at 10 µM
1 | COc1ccc2nc(C)n(C)c2c1CNC(=O)c1cc(F)c(C)c(F)c1 [Example 239, 3,5-difluoro-N-((6-methoxy-1,2-dimethyl-1H-benzimidazol-7-yl)methyl)-4-methylbenzamide] | 60%
2 | COCc1ccc2ncn(C)c2c1CNC(=O)c1ccc(OC(F)F)c(Cl)c1 [Example 283, 3-chloro-4-(difluoromethoxy)-N-{[6-(methoxymethyl)-1-methyl-1H-benzimidazol-7-yl]methyl}benzamide] | 93%
3 | COc1ccc2nc(C)n(C)c2c1CNC(=O)c1ccc(C(F)(F)F)c(F)c1 [Example 236, 3-fluoro-N-((6-methoxy-1,2-dimethyl-1H-benzimidazol-7-yl)methyl)-4-(trifluoromethyl)-benzamide] | 59%
4 | COc1ccc2ncn(C)c2c1CNC(=O)c1ccc(C)c(C(F)(F)F)c1 [Example 47, N-((6-methoxy-1-methyl-1H-benzimidazol-7-yl)-methyl)-4-methyl-3-(trifluoromethyl)benzamide] | 85%
5 | COc1ccc2nc(C)n(C)c2c1CNC(=O)c1ccc(C(F)F)cc1 [Example 241, 4-(difluoromethyl)-N-((6-methoxy-1,2-dimethyl-lH-benzimidazol-7-yl)methyl)benzamide] | 70%
6 | O=C(NCc1cccc2[nH]ncc12)c1ccc(C(F)(F)F)cc1 [Example 175, N-(1H-indazol-4-ylmethyl)-4-(trifluoromethyl)-benzamide] | 82%
7 | Cc1ccc2ncn(C)c2c1CNC(=O)c1csc(C(F)F)c1 [Example 142, 5-(difluoromethyl)-N-((1,6-dimethyl-1H-benzimidazol-7-yl)methyl)thiophene-3-carboxamide] | 85%
8 | COc1ccc(NC(=O)NCc2c(OC)ccc3ncn(C)c23)cc1 [Example 266, 1-((6-methoxy-1-methyl-lH-benzimidazol-7-yl)methyl)-3-(4-methoxyphenyl)urea] | 58%
9 | Cc1ccc2[nH]cnc2c1CNC(=O)c1ccc(OC(F)(F)F)cc1 [Example 3, N-((5-methyl-1H-benzimidazol-4-yl)methyl)-4-(trifluoromethoxy)benzamide] | 97%
10 | COc1ncc(C(=O)NCc2c(C)ccc3ncn(C)c23)cc1F [Example 19, N-((1,6-dimethyl-1H-benzimidazol-7-yl)-methyl)-5-fluoro-6-methoxynicotinamide] | 83%
11 | O=C(NCc1cccc2[nH]ncc12)c1ccc(C(F)(F)F)s1 [Example 167, N-(1H-indazol-4-ylmethyl)-5-(trifluoromethyl)-thiophene-2-carboxamide] | 58%
12 | Cc1c(F)cc(C(=O)NCc2c(C3CC3)ccc3[nH]ncc23)cc1F [Example 97, N-((5-cyclopropyl-1H-indazol-4-yl)methyl)-3,5-difluoro-4-methylbenzamide] | 94%
13 | COc1ccc2ncn(C)c2c1CNC(=O)c1cnc(OC)c(Cl)c1 [Example 57, 5-chloro-6-methoxy-N-((6-methoxy-1-methyl-1H-benzimidazol-7-yl)methyl)nicotinamide] | 91%
14 | COc1ccc(C(=O)NCc2cccc3[nH]ncc23)cc1F [Example 181, 3-fluoro-N-(1H-indazol-4-ylmethyl)-4-methoxybenzamide] | 67%
15 | Cc1ccc2[nH]nnc2c1CNC(=O)c1ccc(OC(F)F)cc1 [Example 265, 4-(difluoromethoxy)-N-((5-methyl-1H-benzotriazol-4-yl)methyl)benzamide] | 97%
16 | COc1ccc2nc(C)n(C)c2c1CNC(=O)c1ccc(C(F)(F)F)cc1 [Example 237, N-((6-methoxy-1,2-dimethyl-1H-benzimidazol-7-yl)methyl)-4-(trifluoromethyl)-benzamide] | 68%
17 | COc1ccc2ncn(C)c2c1CNC(=O)c1ccc(Cl)cc1 [Example 116, 4-chloro-N-((6-methoxy-1-methyl-1H-benzimidazol-7-yl)methyl)benzamide] | 90%
18 | COc1ccc2nc(C)n(C)c2c1CNC(=O)c1ccc(OC(F)F)c(F)c1 [Example 253, 4-(difluoromethoxy)-3-fluoro-N-((6-methoxy-1,2-dimethyl-1H-benzimidazol-7-yl)methyl)benzamide] | 84%
19 | COCc1ccc2ncn(C)c2c1CNC(=O)c1ccc(OC(F)(F)F)c(F)c1 [Example 284, 3-fluoro-N-{[6-(methoxymethyl)-1-methyl-1H-benzimidazol-7-yl]methyl}-4-(trifluoromethoxy)-benzamide] | 95%
20 | Cc1ccc2[nH]ncc2c1CNC(=O)c1ccc(OC(F)(F)F)cc1 [Example 2, N-((5-methyl-1H-indazol-4-yl)methyl)-4-(trifluoromethoxy)benzamide] | 92%

Continued, values first:

Row | inhibition at 10 µM | SMILES
21 | 93% | COc1ccc2ncn(C)c2c1CNC(=O)c1cc(F)c(OC)c(Cl)c1 [Example 111, 3-chloro-5-fluoro-4-methoxy-N-((6-methoxy-1-methyl-1H-benzimidazol-7-yl)methyl)benzamide]
22 | 89% | Cc1ccc2ncn(C)c2c1CNC(=O)c1csc(C(F)(F)F)c1 [Example 163, N-((1,6-dimethyl-1H-benzimidazol-7-yl)methyl)-5-(trifluoromethyl)-thiophene-3-carboxamide]
23 | 93% | O=C(NCc1c(C2CC2)ccc2[nH]ncc12)c1cnc(OC(F)F)c(F)c1 [Example 105, N-((5-cyclopropyl-1H-indazol-4-yl)methyl)-6-(difluoromethoxy)-5-fluoronicotinamide]
24 | 87% | O=C(NCc1c(I)ccc2[nH]ncc12)c1ccc(OC(F)(F)F)cc1 [Example 4, N-((5-iodo-1H-indazol-4-yl)methyl)-4-(trifluoromethoxy)benzamide]
25 | 91% | Cc1cc(C(=O)NCc2c(C3CC3)ccc3[nH]ncc23)cs1 [Example 66, N-((5-cyclopropyl-1H-indazol-4-yl)methyl)-methylthiophene-3-carboxamide]
26 | 90% | COc1ccc2ncn(C)c2c1CNC(=O)c1cnc(C(F)(F)F)c(Cl)c1 [Example 113, 5-chloro-N-((6-methoxy-1-methyl-1H-benzimidazol-7-yl)methyl)-6-(trifluoromethyl)-nicotinamide]
27 | 92% | O=C(NCc1c(C2CC2)ccc2[nH]ncc12)c1ccc(Cl)s1 [Example 71, 5-chloro-N-((5-cyclopropyl-1H-indazol-4-yl)methyl)thiophene-2-carboxamide]
28 | 91% | CCc1cc(C(=O)NCc2c(OC)ccc3ncn(C)c23)cs1 [Example 29]
29 | 90% | O=C(NCc1c(C2CC2)ccc2[nH]ncc12)c1cc(F)c(OC(F)F)c(F)c1 [Example 153, N-((5-cyclopropyl-1H-indazol-4-yl)methyl)-4-(difluoromethoxy)-3,5-difluorobenzamide]
30 | 92% | COc1ccc(C(=O)NCc2c(C3CC3)ccc3[nH]ncc23)cc1 [Example 101, N-((5-cyclopropyl-1H-indazol-4-yl)methyl)-methoxybenzamide]
31 | 65% | COc1c(F)cc(C(=O)NCc2cccc3ncn(C)c23)cc1F [Example 160, 3,5-difluoro-4-methoxy-N-((1-methyl-1H-benzimidazol-7-yl)methyl)benzamide]
32 | 87% | O=C(NCc1cccc2[nH]ncc12)c1ccc(OC(F)F)cc1 [Example 183, 4-(difluoromethoxy)-N-(1H-indazol-4-ylmethyl)benzamide]
33 | 94% | COc1ccc2ncn(C)c2c1CNC(=O)c1ccc(C(F)(F)F)c(F)c1 [Example 13, 3-fluoro-N-((6-methoxy-1-methyl-1H-benzimidazol-7-yl)methyl)-4-(trifluoromethyl)benzamide]
34 | 85% | O=C(NCc1c(C(F)(F)F)ccc2[nH]ncc12)c1ccc(OC(F)(F)F)cc1 [Example 5, 4-(trifluoromethoxy)-N-((5-(trifluoromethyl)-1H-indazol-4-yl)methyl)benzamide]
35 | 90% | CCc1ccc2ncn(C)c2c1CNC(=O)c1ccc(C(F)F)c(F)c1 [Example 146, 4-(difluoromethyl)-N-((6-ethyl-1-methyl-1H-benzimidazol-7-yl)methyl)-3-fluorobenzamide]
